# Experimental data from PubChem BioAssay AID1421 (Emory University Molecular Libraries Screening Center, 2008).
# Calls of active or inactive are those of the source. The rule behind the calls is not given here.
# Target: Prostaglandin E2 receptor EP2 subtype (Homo sapiens) (UniProt P43116)
# Assay: compounds shifting PGE2 potency at EP2 – cell-based, human EP2, PGE2 EC50 shift, dose response (AID 1421)
# Conditions: EP2-expressing cells, PGE2 EC50 shift by compound
# Chain of Prostaglandin E2 receptor EP2 subtype (Homo sapiens) (P43116 whole entry, looked up): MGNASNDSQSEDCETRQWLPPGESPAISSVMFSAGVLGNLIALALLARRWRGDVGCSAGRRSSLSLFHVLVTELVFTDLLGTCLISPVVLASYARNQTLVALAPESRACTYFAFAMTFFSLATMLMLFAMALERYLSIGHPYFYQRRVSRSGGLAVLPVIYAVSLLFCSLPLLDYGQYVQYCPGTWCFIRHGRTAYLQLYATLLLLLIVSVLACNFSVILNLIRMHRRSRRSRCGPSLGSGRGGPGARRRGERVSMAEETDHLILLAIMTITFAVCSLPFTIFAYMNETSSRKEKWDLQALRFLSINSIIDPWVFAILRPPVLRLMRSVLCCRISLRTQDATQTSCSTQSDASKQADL
row,SMILES,outcome
1,CC(C)OC(=O)c1c(NC(=O)c2cccs2)sc2c1CCCC2,active
2,CCCc1cc(C(=O)OC)c(NC(=O)c2cc(C)on2)s1,active

# Results, then the compound that gave them:
row,outcome,SMILES
1,active,CC(C)Sc1cc(N2CCOCC2)nc(-c2ccccc2)n1
2,active,O=C1C2C3c4ccccc4C(c4ccccc43)[C@@H]2c2nc3ccccc3n21 (stereo partly drawn)
3,active,Cc1ccc(C(=O)Nc2ccccc2C(=O)NCc2ccccc2)cc1
4,active,CCOC(=O)C(C)Sc1nc(-c2ccccc2)nc2ccccc12 (stereo not drawn)
5,active,CC(=O)N(Cc1cccs1)Cc1cc2ccc(C)c(C)c2nc1Cl
6,active,CCc1ccc(NC(=S)N(Cc2ccccc2)Cc2ccccn2)cc1

# Same assay, conditions: EP2-expressing cells, PGE2 EC50 shift by compound; measured here: PGE2 EC50 at 6.7 uM compound
row,SMILES,PGE2 EC50 with compound [nM]
1,O=S(=O)(c1ccc(F)c(Cl)c1)N1CCCC1,1.02
2,CC(C)OC(=O)c1c(NC(=O)c2cccs2)sc2c1CCCC2,1.01
3,Cc1ccsc1-c1n[nH]c(=S)n1C1CCCCC1,1.2
4,CCC(=O)N1CCN(c2nc(-c3ccccc3)c3c(c2C#N)CCCC3)CC1,0.91
5,Cc1c(F)cccc1NC(=O)CCCCCC1NC(=O)NC1C (stereo not drawn),1.84
6,COc1ccc(S(=O)(=O)N(Cc2cccs2)C2CCCC2)cc1,1.26
7,Cc1ccc(Cl)cc1NC1=NC(=S)N(C(C)C)C12CCCCC2,0.77
8,CCOC(=O)c1cc2sc(C)cc2n1C(C)C(=O)OCC (stereo not drawn),0.84
9,Clc1ccc(Cl)c(-c2ccc(/C=N/c3ncn[nH]3)o2)c1,1.34
10,C1=C(c2ccccc2)Nc2ccccc2N=C1c1ccccc1,2.46
11,CN(c1ccccc1)c1nc(N2CCCC2)nc(-n2ccnc2)n1,0.79
12,O=c1oc2c3c4c(cc2c(C(F)(F)F)c1CCN1CCOCC1)CCCN4CCC3,0.83
13,O=C(O)[C@@H]1[C@H](C(=O)O)[C@@H](C(=O)O)C[C@H]1C(=O)O,0.91
14,Cc1cccc(C)c1N1CCN(c2ccc3nnc(C(F)(F)F)n3n2)CC1,0.52
15,O=C(c1ccccc1)C1CN(Cc2ccccc2)CCC1(O)c1ccccc1 (stereo not drawn),2.61
16,CCCc1cc(C(=O)OC)c(NC(=O)c2cc(C)on2)s1,0.7
17,C=CCSc1nc(N(CC)CC)c2sccc2n1,0.98
18,O=S(=O)(Nc1ccccc1N1CCCCC1)c1ccc(Cl)s1,1.49
19,Cc1cc(C)c(S(=O)(=O)O)c(C)n1,1.25
20,COc1ccc(-c2nc(NC(C)=O)sc2-c2ccc(OC)cc2)cc1,0.95
21,O=C(c1ccco1)N(CC1CCCO1)c1nc(-c2ccccc2)cs1 (stereo not drawn),0.61
22,CCn1ncc(Cl)c1C(=O)Nc1cc(Cl)ccc1Cl,0.7
23,Cc1cc(C)nc(SCc2nnc(SCC#N)n2-c2cccc(Cl)c2)n1,2.76
24,Cc1noc(C)c1CSc1nc2sc3c(c2c(=O)n1C)CCCC3,1.46

# More lines, now with the values ahead:
row,PGE2 EC50 with compound [nM],SMILES
1,1.73,O=C(CSc1nnc(Cc2ccccc2)n1Cc1ccco1)NC12CC3CC(CC(C3)C1)C2
2,1.64,COc1cc(/C=C/c2ccc3cccc([N+](=O)[O-])c3n2)ccc1OCC(=O)O
3,0.76,COc1ccccc1/C=C/C(=O)OCC(=O)Nc1ccccc1Sc1ccccc1
4,1.16,O=c1c2ccccc2c(=O)n(Cc2ccccc2)n1Cc1ccccc1
5,1.38,O=C1COc2ccccc2N1Cc1ccccc1Cl
6,1.04,COCCOC(=O)c1c(C)oc2ccc(OCc3ccccc3)cc12
7,1.3,CCOC(=O)C1=CN(CC2CCCO2)C=C(C(=O)OCC)C1c1ccccc1C(F)(F)F (stereo not drawn)
8,2.59,CC(C)n1c2ccccc2c2nc3ccccc3nc21
9,2.47,Cc1ccccc1S(=O)(=O)c1c(C)cc(C)n(CC(C)C)c1=O
10,2.52,CC(=O)c1ccc(-n2c(C)ccc2-c2ccccc2)cc1
11,2.64,CCCOc1ccccc1Cn1c(=O)oc2ccc(C)cc21
12,2.09,Nc1[nH]n2c(=O)c3c(nc2c1N=Nc1ccccc1)CCCC3
13,0.46,O=C(Nc1ccccc1-c1nc2ccccc2s1)C1=COCCO1
14,1.11,CCCCNc1nc(N(C)c2ccccc2)nc(-n2ccnc2)n1
15,1.43,C[C@H](C(=O)c1ccccc1)[C@@H](c1ccccc1)N1CCOCC1
16,0.88,Cc1cccc(-c2nc(=S)c3c(n2Cc2ccco2)CCCC3)c1
17,1.36,Cc1ccc(-n2nc3c(c2NC(=O)c2ccc(Br)o2)CSC3)c(C)c1
18,1.22,CC(C)Sc1cc(N2CCOCC2)nc(-c2ccccc2)n1
19,1.11,CCOP(=O)(OCC)c1nc(-c2cccc3ccccc23)oc1N1CCCCC1
20,1.21,Cc1nc(N(C)C)c2sc(=S)n(Cc3ccccc3)c2n1
21,1.51,CCOc1ccccc1-c1nc2c(C(C)(C)C)nn(C)c2c(=O)[nH]1
22,0.32,CCCCOc1ccccc1NC(=O)c1scc2c1OCCO2
23,1.38,S=C1NCCc2ccc(Cl)cc2C1c1ccccc1 (stereo not drawn)
24,1.43,COc1cc(OC)c2c(OC)c(-c3ccc4c(c3)OCO4)c(=O)oc2c1
25,2.54,C=CCSc1nc2ccsc2c(=O)n1-c1ccccc1
26,1.01,Cc1cc(SCCC(=O)O)nc2c(C)cccc12
